How the values were obtained:
PDGFRβ = PDGFRβ (Homo sapiens (Human), UniProt P09619); assay: PDGFRβ kinase activity test (Caliper mobility shift assay); format: biochemical
Method: (§1) Caliper mobility shift assay was used to determine the kinase activities of c-Kit, PDGFRα, PDGFRβ, and FLT-3.
(§2) The final concentration of the kinase and its corresponding substrate (ATP and peptide substrate P2 or P22) during the experiment is as follows:
(§3) Add 5 μL of compound (10% DMSO) at 5 times the final concentration of the reaction to a 384-well plate. Add 10 μL of 2.5×enzyme solution and incubate for 10 minutes at room temperature, then add 10 μL of 2.5×substrate (ATP and peptide substrate, P2 or P22). After incubating at 28° C. for 60 minutes, add 25 μL stop solution to stop the reaction. Read conversion rate data on Caliper EZ Reader II (Caliper Life Sciences). Convert the conversion rate into inhibition rate data (% inhibition rate=(max−sample conversion rate)/(max−min)×100). Where max refers to the conversion rate of the DMSO control, and min refers to the conversion rate of the control without enzyme activity. Draw a curve with compound concentration and inhibition rate on the abscissa and ordinate, use XLFit excel add-in version 4.3.1 software to fit the curve and calculate IC50.

c-Kit = c-Kit (Homo sapiens (Human), UniProt P10721); assay: c-Kit kinase activity test (Caliper mobility shift assay); format: biochemical
Sequence of c-Kit (P10721 26-976): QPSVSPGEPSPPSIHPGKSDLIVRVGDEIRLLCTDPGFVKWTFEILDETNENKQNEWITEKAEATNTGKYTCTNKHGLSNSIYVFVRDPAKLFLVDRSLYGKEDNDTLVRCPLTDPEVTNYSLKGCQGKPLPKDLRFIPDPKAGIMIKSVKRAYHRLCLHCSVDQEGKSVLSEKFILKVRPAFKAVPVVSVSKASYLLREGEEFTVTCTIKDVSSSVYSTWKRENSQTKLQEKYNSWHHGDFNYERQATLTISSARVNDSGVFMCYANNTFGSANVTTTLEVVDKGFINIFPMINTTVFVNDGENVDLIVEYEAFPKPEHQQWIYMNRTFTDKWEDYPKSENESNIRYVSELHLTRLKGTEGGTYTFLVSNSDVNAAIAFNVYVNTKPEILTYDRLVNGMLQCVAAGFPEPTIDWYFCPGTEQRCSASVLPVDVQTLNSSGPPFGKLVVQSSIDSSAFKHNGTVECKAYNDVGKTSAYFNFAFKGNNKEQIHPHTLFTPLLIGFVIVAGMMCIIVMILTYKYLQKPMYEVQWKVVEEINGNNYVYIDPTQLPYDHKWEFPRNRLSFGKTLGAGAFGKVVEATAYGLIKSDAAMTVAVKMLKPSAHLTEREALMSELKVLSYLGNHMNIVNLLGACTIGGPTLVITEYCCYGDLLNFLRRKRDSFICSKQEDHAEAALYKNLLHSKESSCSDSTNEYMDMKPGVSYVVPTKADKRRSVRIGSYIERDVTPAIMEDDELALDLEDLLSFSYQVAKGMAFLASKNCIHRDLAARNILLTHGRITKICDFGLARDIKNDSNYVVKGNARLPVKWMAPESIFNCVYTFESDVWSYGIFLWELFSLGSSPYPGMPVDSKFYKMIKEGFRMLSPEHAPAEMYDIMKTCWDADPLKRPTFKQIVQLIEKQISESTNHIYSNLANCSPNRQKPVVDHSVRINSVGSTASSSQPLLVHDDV
Method: as §1, §2, §3

[1] = Pharmacokinetic evaluation in CD-1 mice, gavage; format: in vivo; conditions: 10 mg/kg, plasma; for bioavailability / Cmax / half-life: mouse, po; for half-life: read-out: T½ (converted)
Description: Using mice as the test animals, the LC/MS/MS method was used to determine that the mice were intragastrically administered the compound of Example 1, the compound of Example 2, the compound of Example 3, the compound of Example 4, the compound of Example 10, and the compound of Example 14. Compound, the concentration of the drug in the plasma at different times after the compound of Example 26. Study the pharmacokinetic behavior of the compound of the present invention in mice and evaluate its pharmacokinetic characteristics.
The test animals were CD-1 mice, purchased from Shanghai Slack Laboratory Animal Co., Ltd.
Weigh a certain amount of drug, add 5% volume of DMSO or DMAc, 5% volume of PEG400 and 90% volume of normal saline to prepare 1.0 mg/mL colorless, clear and transparent liquid or uniformly dispersed suspension.
CD-1 mice were fasted overnight and then administered by gavage. The dosage was 10 mg/kg and the dosage was 10 mL/kg.
Gavage the mice before and after administration at 0.25, 0.5, 1.0, 2.0, 4.0, 6.0, 8.0, 24.0 hours to collect 0.1 mL of blood, place it in a K2-EDTA anticoagulation tube, and centrifuge at 3500 rpm for 10 minutes. Plasma, stored at −20° C.
To determine the content of the test compound in mouse plasma after gavage of different concentrations of drugs: take 20 uL of mouse plasma at each moment after administration, add propranolol and tolbutamide (each 100 ng/mL) 200 uL of acetonitrile solution, vortex for 5 minutes, centrifuge for 12 minutes (4000 rpm), and take 5 uL of the supernatant from the plasma sample for LC/MS/MS analysis.

FLT-3 = FLT-3 (Homo sapiens (Human), UniProt P36888); assay: FLT-3 kinase activity test (Caliper mobility shift assay); format: biochemical
Sequence of FLT-3 (P36888 27-993): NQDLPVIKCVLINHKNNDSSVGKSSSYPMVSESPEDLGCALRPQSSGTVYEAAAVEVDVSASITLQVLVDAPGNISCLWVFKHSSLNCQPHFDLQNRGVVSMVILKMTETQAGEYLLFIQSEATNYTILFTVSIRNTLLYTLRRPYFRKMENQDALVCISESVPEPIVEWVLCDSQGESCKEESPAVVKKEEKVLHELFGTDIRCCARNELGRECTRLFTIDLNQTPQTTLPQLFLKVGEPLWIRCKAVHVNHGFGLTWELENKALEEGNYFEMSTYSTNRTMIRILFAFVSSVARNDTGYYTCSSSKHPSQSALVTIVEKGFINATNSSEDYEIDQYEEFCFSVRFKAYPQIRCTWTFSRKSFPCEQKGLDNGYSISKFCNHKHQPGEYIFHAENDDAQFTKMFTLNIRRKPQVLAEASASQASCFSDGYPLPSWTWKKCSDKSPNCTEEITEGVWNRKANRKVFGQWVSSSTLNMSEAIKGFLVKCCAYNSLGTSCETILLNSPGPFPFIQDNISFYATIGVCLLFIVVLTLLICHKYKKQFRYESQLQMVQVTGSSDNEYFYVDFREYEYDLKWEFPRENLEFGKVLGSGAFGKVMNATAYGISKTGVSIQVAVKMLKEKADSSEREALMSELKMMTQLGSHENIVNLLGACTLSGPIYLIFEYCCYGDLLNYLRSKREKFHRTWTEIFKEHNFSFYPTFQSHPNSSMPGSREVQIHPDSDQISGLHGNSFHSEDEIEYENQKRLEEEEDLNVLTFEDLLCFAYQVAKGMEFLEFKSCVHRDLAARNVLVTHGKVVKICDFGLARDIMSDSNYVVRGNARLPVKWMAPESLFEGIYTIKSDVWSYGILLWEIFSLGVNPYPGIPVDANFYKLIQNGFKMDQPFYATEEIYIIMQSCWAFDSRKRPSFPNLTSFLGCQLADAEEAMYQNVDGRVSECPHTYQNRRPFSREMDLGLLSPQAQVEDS
Method: as §1, §2, §3

CSF1R = CSF1R (Homo sapiens (Human), UniProt P07333); assay: CSF1R kinase activity test (HTRF); format: biochemical; conditions: ATP 8 μM
Sequence of CSF1R (P07333 20-972, species assumed): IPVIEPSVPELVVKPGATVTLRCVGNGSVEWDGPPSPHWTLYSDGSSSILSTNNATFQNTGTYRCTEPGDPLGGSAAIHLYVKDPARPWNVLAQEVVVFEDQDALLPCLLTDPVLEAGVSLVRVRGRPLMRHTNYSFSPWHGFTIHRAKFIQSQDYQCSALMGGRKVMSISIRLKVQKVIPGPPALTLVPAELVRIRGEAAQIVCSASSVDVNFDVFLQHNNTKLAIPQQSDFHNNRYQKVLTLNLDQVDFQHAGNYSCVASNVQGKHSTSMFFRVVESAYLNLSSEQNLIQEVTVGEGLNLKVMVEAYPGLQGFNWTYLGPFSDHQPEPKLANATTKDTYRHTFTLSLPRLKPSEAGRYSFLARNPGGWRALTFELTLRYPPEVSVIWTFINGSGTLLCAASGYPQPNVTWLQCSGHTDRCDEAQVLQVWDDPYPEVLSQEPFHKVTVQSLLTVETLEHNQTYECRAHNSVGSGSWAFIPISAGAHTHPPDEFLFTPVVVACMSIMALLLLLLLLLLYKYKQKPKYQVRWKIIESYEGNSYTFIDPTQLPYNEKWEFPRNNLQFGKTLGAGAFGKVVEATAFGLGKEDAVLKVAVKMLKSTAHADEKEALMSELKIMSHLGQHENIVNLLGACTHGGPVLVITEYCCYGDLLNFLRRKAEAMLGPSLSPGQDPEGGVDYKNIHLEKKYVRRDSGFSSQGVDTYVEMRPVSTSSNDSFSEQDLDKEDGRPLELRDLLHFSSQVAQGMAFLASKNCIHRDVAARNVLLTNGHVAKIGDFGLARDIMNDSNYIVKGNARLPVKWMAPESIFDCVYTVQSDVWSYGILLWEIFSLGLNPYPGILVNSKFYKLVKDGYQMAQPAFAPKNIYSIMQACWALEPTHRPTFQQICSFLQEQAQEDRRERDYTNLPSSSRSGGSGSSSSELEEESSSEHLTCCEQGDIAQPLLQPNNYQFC
Method: In a 384-well plate, add 10 nL of the test compound to each well with the Echo 550 sample loading device. […] Use this buffer to adjust the concentration of CSF1R to 0.02 ng/ul. Add 5 μL of buffer containing CSF1R to the 384-well plate after centrifugation at 1000 g for 30 seconds and incubate at room temperature for 10 minutes. […] The inhibition rate of each point is obtained by the following formula: […]
Wherein, Ratiopositive: the experimental positive control None; Ratiovehicle: is the test value of 0.1% DMSO. With the compound concentration and inhibition rate on the abscissa and ordinate, the curve was drawn, and the curve was fitted with Graphpad 5.0 software and the IC50 was calculated.

FMS = FMS (Homo sapiens (Human), UniProt P07333)
Sequence of FMS (P07333 20-972): as the sequence (P07333 20-972, species assumed) above
Method: Place the culture plate in a cell incubator and incubate for 4 hours. […] Add the diluted recombinant human MCSF to a 24-well plate at 100 μL per well, mix quickly and incubate in an incubator for 4 minutes.

Sequence of PDGFRβ (P09619 33-1106): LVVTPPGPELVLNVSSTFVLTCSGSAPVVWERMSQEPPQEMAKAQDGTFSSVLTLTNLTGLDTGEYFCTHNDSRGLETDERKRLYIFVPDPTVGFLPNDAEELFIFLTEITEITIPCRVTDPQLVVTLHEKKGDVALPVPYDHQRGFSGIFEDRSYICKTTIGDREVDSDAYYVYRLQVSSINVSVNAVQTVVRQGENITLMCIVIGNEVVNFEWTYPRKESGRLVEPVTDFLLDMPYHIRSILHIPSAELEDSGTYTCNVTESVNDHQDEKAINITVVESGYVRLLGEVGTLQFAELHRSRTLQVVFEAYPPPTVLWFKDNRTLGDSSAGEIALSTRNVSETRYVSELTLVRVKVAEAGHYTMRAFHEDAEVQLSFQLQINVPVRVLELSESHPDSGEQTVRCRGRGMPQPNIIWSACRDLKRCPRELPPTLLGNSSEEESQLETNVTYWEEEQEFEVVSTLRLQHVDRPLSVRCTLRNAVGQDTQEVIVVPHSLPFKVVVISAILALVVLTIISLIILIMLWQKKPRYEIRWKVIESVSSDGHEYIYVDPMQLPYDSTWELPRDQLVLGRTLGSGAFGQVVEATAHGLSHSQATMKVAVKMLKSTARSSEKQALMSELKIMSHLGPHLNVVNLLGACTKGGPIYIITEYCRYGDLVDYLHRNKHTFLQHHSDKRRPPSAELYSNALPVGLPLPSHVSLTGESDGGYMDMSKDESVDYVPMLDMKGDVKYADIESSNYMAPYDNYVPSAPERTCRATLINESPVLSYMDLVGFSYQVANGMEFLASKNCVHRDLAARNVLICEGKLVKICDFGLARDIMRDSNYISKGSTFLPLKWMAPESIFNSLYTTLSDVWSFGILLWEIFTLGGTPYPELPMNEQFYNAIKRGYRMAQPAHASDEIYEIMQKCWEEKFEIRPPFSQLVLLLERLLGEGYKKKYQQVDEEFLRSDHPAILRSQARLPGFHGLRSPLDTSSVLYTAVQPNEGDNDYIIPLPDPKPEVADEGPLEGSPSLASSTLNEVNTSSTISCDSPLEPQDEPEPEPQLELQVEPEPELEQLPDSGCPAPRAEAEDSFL

Compound | IC50 (PDGFRβ) [nM] | IC50 (c-Kit) [nM] | IC50 (CSF1R) [nM] | further results
Cn1cc(-c2cc(Oc3ccc(NC(=O)N4CCC5(CCC5)C4=O)nc3)ccn2)cn1 [Compound 1] | 2860 | 3.5 |  | AUC [1]: 26600 ng·h/mL; bioavailability [1]: 100%; Cmax [1]: 3390 ng/mL; half-life [1]: 2.73 h; IC50 (FLT-3): > 10000 nM
Cn1cc(-c2cc(Oc3ccc(NC(=O)N4CCC5(CCCCC5)C4=O)nc3)ccn2)cn1 [Compound 2] | 1580 | 5.4 | 6.2 | AUC [1]: 6100 ng·h/mL; bioavailability [1]: 71.5%; Cmax [1]: 860 ng/mL; half-life [1]: 3.14 h
Cn1cc(-c2cc(Oc3ccc(NC(=O)N4CCC5(CCCC5)C4=O)nc3)ccn2)cn1 [Compound 3] | 1620 | 2.6 | 1.1 | AUC [1]: 15800 ng·h/mL; bioavailability [1]: 89.5%; Cmax [1]: 3200 ng/mL; half-life [1]: 3.3 h
Cn1cc(-c2cc(Oc3ccc(NC(=O)N4CCC5(CCC(F)(F)CC5)C4=O)nc3)ccn2)cn1 [Compound 4] | 783 | 16 |  | AUC [1]: 38800 ng·h/mL; bioavailability [1]: 100%; Cmax [1]: 5270 ng/mL; half-life [1]: 2.64 h; IC50 (FLT-3): > 10000 nM
Cn1cc(-c2cc(Oc3ccc(NC(=O)N4CCC5(CCOCC5)C4=O)nc3)ccn2)cn1 [Compound 5] |  |  | 9.1 | 
Cn1cc(-c2cc(Oc3ccc(NC(=O)N4CCC5(CCCCC5(F)F)C4=O)nc3)ccn2)cn1 (stereo not shown) [Compound 6] |  |  | 5.4 | 
Cn1cc(-c2cc(Oc3ccc(NC(=O)N4CCC5(CCCO5)C4=O)nc3)ccn2)cn1 (stereo not shown) [Compound 7] |  |  | 2.7 | 
Cn1cc(-c2cc(Oc3ccc(NC(=O)N4CCC5(CCCC5(F)F)C4=O)nc3)ccn2)cn1 (stereo not shown) [Compound 8] |  |  | 2.3 | 
Cn1cc(-c2cc(Oc3ccc(NC(=O)N4CCC5(CCCCC5F)C4=O)nc3)ccn2)cn1 (stereo not shown) [Compound 9] |  |  | 2.1 | 
Cn1cc(-c2cc(Oc3ccc(NC(=O)N4CCC5(CC5)C4=O)nc3)ccn2)cn1 [Compound 10] |  |  | 0.55 | AUC [1]: 21300 ng·h/mL; bioavailability [1]: 64%; Cmax [1]: 2240 ng/mL; half-life [1]: 5.18 h; EC50 (FMS): 4 nM
Cn1cc(-c2cc(Oc3ccc(NC(=O)N4CCC5(CCNCC5)C4=O)nc3)ccn2)cn1 [Compound 11] |  |  | 300 | 
CC(=O)N1CCC2(CC1)CCN(C(=O)Nc1ccc(Oc3ccnc(-c4cnn(C)c4)c3)cn1)C2=O [Compound 12] |  |  | 171 | 
Cn1cc(-c2cc(Oc3ccc(NC(=O)N4CCC5(CCN(S(C)(=O)=O)CC5)C4=O)nc3)ccn2)cn1 [Compound 13] |  |  | 25 | 
Cc1nc(NC(=O)N2CCC3(CCC(F)(F)CC3)C2=O)ccc1Oc1ccnc(-c2cnn(C)c2)c1 [Compound 14] | > 10000 | 17 |  | AUC [1]: 20300 ng·h/mL; bioavailability [1]: 67.3%; Cmax [1]: 1400 ng/mL; half-life [1]: 5.91 h; IC50 (FLT-3): > 10000 nM
Cc1nc(NC(=O)N2CCC3(CCC3)C2=O)ccc1Oc1ccnc(-c2cnn(C)c2)c1 [Compound 15] | > 10000 | 29 |  | IC50 (FLT-3): > 10000 nM
CCc1nc(NC(=O)N2CCC3(CCC(F)(F)CC3)C2=O)ccc1Oc1ccnc(-c2cnn(C)c2)c1 [Compound 16] |  |  | 6.4 | 
Cn1cc(-c2cc(Oc3ccc(NC(=O)N4CCC5(CCCC(O)C5)C4=O)nc3)ccn2)cn1 (stereo not shown) [Compound 17] |  |  | 6.5 | 
Cn1cc(-c2cc(Oc3ccc(NC(=O)N4CCC5(CCCC(F)(F)C5)C4=O)nc3)ccn2)cn1 (stereo not shown) [Compound 18] | 343 | 8.4 |  | IC50 (FLT-3): 8630 nM
Cn1cc(-c2cc(Oc3ccc(NC(=O)N4CCC5(CCC(=O)C5)C4=O)nc3)ccn2)cn1 (stereo not shown) [Compound 19] | 719 | 11 |  | IC50 (FLT-3): > 10000 nM
O=C(Nc1ccc(Oc2ccnc(-c3cn[nH]c3)c2)cn1)N1CCC2(CCC(F)(F)CC2)C1=O [Compound 21] | 7450 | 10.1 |  | 
CN1CCC(c2ccc(-c3cc(Oc4ccc(NC(=O)N5CCC6(CCC(F)(F)CC6)C5=O)nc4)ccn3)cc2)CC1 [Compound 22] |  |  | 6.7 | 
Cc1ncc(-c2cc(Oc3ccc(NC(=O)N4CCC5(CCC(F)(F)CC5)C4=O)nc3)ccn2)s1 [Compound 23] |  |  | 5.3 | 
Cn1cc(-c2cc(Oc3ccc(NC(=O)N4CCC5(CCCC(F)(F)C5)C4=O)nc3)ccn2)cn1 (stereo not shown) [Compound 24] |  | 20 |  | 
Cn1cc(-c2cc(Oc3ccc(NC(=O)N4CCC5(CCC(F)(F)C5)C4=O)nc3)ccn2)cn1 (stereo not shown) [Compound 25] |  | 5 |  | 
Cn1cc(-c2cc(Oc3ccc(NC(=O)N4CCC5(CC(F)(F)C5)C4=O)nc3)ccn2)cn1 [Compound 26] | 2810 | 4.5 |  | AUC [1]: 48300 ng·h/mL; bioavailability [1]: 79%; Cmax [1]: 4490 ng/mL; half-life [1]: 6.72 h; IC50 (FLT-3): > 10000 nM

Reference: patent US11591328B2 (XIAMEN BIOTIME BIOTECHNOLOGY CO., LTD., priority 2018, dated 2023)
